Reference: ChEMBL document CHEMBL1201862, “PubChem BioAssay data set” (2004)
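Assay format: 96-well plates, 48-hour exposure. GI50: concentration for 50% inhibition of growth.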 Calls of active or inactive are those of the source. Rule as the data show it: active = GI50 up to about 1.1 µM and inactive = higher.

Columns and labels:
Test in all cases: growth of human tumour cells (NCI), 48 h
SR = tested on: SR
SK-MEL-2 = tested on: SK-MEL-2
KM12 = tested on: KM12
NCI-H226 = tested on: NCI-H226
SK-MEL-5 = tested on: SK-MEL-5
PC-3 = tested on: PC-3
Malme-3M = tested on: Malme-3M
COLO 205 = tested on: COLO 205
M14 = tested on: M14
NCI-H460 = tested on: NCI-H460
OVCAR-3 = tested on: OVCAR-3
OVCAR-5 = tested on: OVCAR-5
OVCAR-4 = tested on: OVCAR-4
HL-60 = tested on: HL-60
SW-620 = tested on: SW-620
DU-145 = tested on: DU-145
MCF7 = tested on: MCF7
HCC 2998 = tested on: HCC 2998
EKVX = tested on: EKVX

Compound | GI50 (SR) | GI50 (SK-MEL-2) | GI50 (KM12) | GI50 (NCI-H226) | GI50 (SK-MEL-5) | GI50 (PC-3) | GI50 (Malme-3M) | GI50 (COLO 205) | GI50 (M14) | GI50 (NCI-H460) | GI50 (OVCAR-3) | GI50 (OVCAR-5) | GI50 (OVCAR-4) | GI50 (HL-60) | GI50 (SW-620) | GI50 (DU-145) | GI50 (MCF7) | GI50 (HCC 2998) | GI50 (EKVX)
CN(C)CCCSc1nc2c(c(=N)n1-c1ccccc1)c(=S)n(-c1ccccc1)c(=S)n2-c1ccccc1 | 0.237 µM (active) | 2.12 µM (inactive) | 1.83 µM (inactive) | 4.74 µM (inactive) | 1.91 µM (inactive) | 1.75 µM (inactive) | 2.04 µM (inactive) | 1.9 µM (inactive) | 1.78 µM (inactive) | 1.82 µM (inactive) | 1.75 µM (inactive) | 11.3 µM (inactive) | 1.79 µM (inactive) | 0.798 µM (active) | 1.79 µM (inactive) | 1.67 µM (inactive) | 0.383 µM (active) | 1.45 µM (inactive) | 1.91 µM (inactive)
CC1(C)N=C(N)N=C(N)N1c1ccc(CCCCc2ccc(Cl)cc2Cl)cc1 | 0.735 µM (active) | 0.887 µM (active) | 0.63 µM (active) | – | 1.12 µM (inactive) | 0.418 µM (active) | 0.486 µM (active) | 0.927 µM (active) | 0.914 µM (active) | 0.0165 µM (active) | 0.431 µM (active) | 4.31 µM (inactive) | 0.542 µM (active) | 0.461 µM (active) | 0.356 µM (active) | 1.92 µM (inactive) | 0.453 µM (active) | 0.451 µM (active) | 15.1 µM (inactive)
OC1CCC(COC(c2ccccc2)(c2ccccc2)c2ccccc2)O1 (stereo not given) | > 10 µM (inactive) | 18.1 µM (inactive) | 17.7 µM (inactive) | 24.2 µM (inactive) | 16.9 µM (inactive) | 10.7 µM (inactive) | 17.9 µM (inactive) | 17.1 µM (inactive) | 18.7 µM (inactive) | 21 µM (inactive) | 18.4 µM (inactive) | 22.9 µM (inactive) | – | 18.2 µM (inactive) | 17.5 µM (inactive) | 20.8 µM (inactive) | 17.1 µM (inactive) | 16.4 µM (inactive) | > 10 µM (inactive)
CC1=NN(c2nc(N)nc(/C(C#N)=C/c3ccncc3)n2)C(C)(C)C1 | 74.6 µM (inactive) | > 100 µM (inactive) | > 100 µM (inactive) | > 100 µM (inactive) | > 100 µM (inactive) | > 100 µM (inactive) | – | > 100 µM (inactive) | > 100 µM (inactive) | > 100 µM (inactive) | – | – | > 100 µM (inactive) | 52.1 µM (inactive) | > 100 µM (inactive) | 47.4 µM (inactive) | 91.8 µM (inactive) | > 100 µM (inactive) | > 100 µM (inactive)
COc1ccc(CC/N=C2\OCc3ccccc32)cc1OC | 11.5 µM (inactive) | 51.2 µM (inactive) | 31.5 µM (inactive) | 51.3 µM (inactive) | 43.3 µM (inactive) | 46.9 µM (inactive) | 56.8 µM (inactive) | 49.3 µM (inactive) | – | 45.5 µM (inactive) | – | – | 59 µM (inactive) | 5.42 µM (inactive) | 54.5 µM (inactive) | 32.4 µM (inactive) | 27.7 µM (inactive) | > 100 µM (inactive) | 76.2 µM (inactive)
CC1=NN(c2nc(N)nc(CCl)n2)C(C)(C)C1 | 15.8 µM (inactive) | 46.8 µM (inactive) | 19.3 µM (inactive) | 38.1 µM (inactive) | 19.8 µM (inactive) | 40.8 µM (inactive) | – | 22.9 µM (inactive) | 30.7 µM (inactive) | 17.2 µM (inactive) | 14.1 µM (inactive) | 32 µM (inactive) | 8.63 µM (inactive) | 4.69 µM (inactive) | 25.6 µM (inactive) | 35.1 µM (inactive) | 45 µM (inactive) | 27.1 µM (inactive) | 12.9 µM (inactive)
CCOC(=O)/C(=C\NC(=S)Nc1ccc(Cl)c(Cl)c1)C(=O)c1ccccc1 | 20.4 µM (inactive) | 21.7 µM (inactive) | 26.5 µM (inactive) | 13.9 µM (inactive) | 27.1 µM (inactive) | 21.5 µM (inactive) | 63.5 µM (inactive) | 46 µM (inactive) | 27.3 µM (inactive) | 42.1 µM (inactive) | – | 36.2 µM (inactive) | 41.5 µM (inactive) | 22.8 µM (inactive) | 39.2 µM (inactive) | > 100 µM (inactive) | 33.3 µM (inactive) | 17.3 µM (inactive) | > 100 µM (inactive)
OCC(O)C(Cl)CCl (stereo not given) | > 100 µM (inactive) | – | > 100 µM (inactive) | > 100 µM (inactive) | > 100 µM (inactive) | > 100 µM (inactive) | 31.5 µM (inactive) | > 100 µM (inactive) | > 100 µM (inactive) | > 100 µM (inactive) | > 100 µM (inactive) | > 100 µM (inactive) | > 100 µM (inactive) | > 100 µM (inactive) | > 100 µM (inactive) | > 100 µM (inactive) | > 100 µM (inactive) | > 100 µM (inactive) | > 100 µM (inactive)
C=CCc1c(O)c2ccccc2[nH]c1=O | > 100 µM (inactive) | – | > 100 µM (inactive) | > 100 µM (inactive) | > 100 µM (inactive) | > 100 µM (inactive) | > 100 µM (inactive) | > 100 µM (inactive) | – | > 100 µM (inactive) | > 100 µM (inactive) | > 100 µM (inactive) | > 100 µM (inactive) | > 100 µM (inactive) | > 100 µM (inactive) | > 100 µM (inactive) | > 100 µM (inactive) | > 100 µM (inactive) | > 100 µM (inactive)
NC(=O)SCC(=O)Nc1ccc2cccc3c2c1CC3 | 8.71 µM (inactive) | 17.1 µM (inactive) | 36.7 µM (inactive) | – | 26.8 µM (inactive) | 4.4 µM (inactive) | > 100 µM (inactive) | > 100 µM (inactive) | 21.8 µM (inactive) | – | 31.6 µM (inactive) | 17.7 µM (inactive) | 17.3 µM (inactive) | 3.9 µM (inactive) | 12.2 µM (inactive) | > 100 µM (inactive) | 11 µM (inactive) | 62.1 µM (inactive) | > 100 µM (inactive)
CC(=N)OC1CC2CCC1(C)C2(C)C (stereo not given) | > 100 µM (inactive) | – | > 100 µM (inactive) | > 100 µM (inactive) | > 100 µM (inactive) | > 100 µM (inactive) | > 100 µM (inactive) | > 100 µM (inactive) | > 100 µM (inactive) | > 100 µM (inactive) | > 100 µM (inactive) | > 100 µM (inactive) | > 100 µM (inactive) | > 100 µM (inactive) | > 100 µM (inactive) | > 100 µM (inactive) | > 100 µM (inactive) | > 100 µM (inactive) | > 100 µM (inactive)
CC1CC(OP(=O)(OCc2ccccc2)OCc2ccccc2)[C@@H](OCc2ccccc2)C(OCc2ccccc2)C1OCc1ccccc1 (stereo not given in full) | > 100 µM (inactive) | > 100 µM (inactive) | – | > 100 µM (inactive) | 62.5 µM (inactive) | 23.4 µM (inactive) | 57.5 µM (inactive) | > 100 µM (inactive) | > 100 µM (inactive) | 34.3 µM (inactive) | – | > 100 µM (inactive) | > 100 µM (inactive) | 28.5 µM (inactive) | > 100 µM (inactive) | > 100 µM (inactive) | 40.2 µM (inactive) | > 100 µM (inactive) | 34.1 µM (inactive)
